Laboratory results taken from ChEMBL document CHEMBL1201862, “PubChem BioAssay data set” (2004).
Calls of active or inactive are those of the source.

Experiments:
Leucine aminopeptidase = molecular target: T1, Leucine aminopeptidase (Plasmodium falciparum 3D7, UniProt Q8IL11); assay: P. falciparum M17LAP inhibitors, primary screen, biochemical, fluorogenic H-Leu-NHMec substrate, 1536-well (AID 1619); type: functional
T1 sequence (Q8IL11 whole entry): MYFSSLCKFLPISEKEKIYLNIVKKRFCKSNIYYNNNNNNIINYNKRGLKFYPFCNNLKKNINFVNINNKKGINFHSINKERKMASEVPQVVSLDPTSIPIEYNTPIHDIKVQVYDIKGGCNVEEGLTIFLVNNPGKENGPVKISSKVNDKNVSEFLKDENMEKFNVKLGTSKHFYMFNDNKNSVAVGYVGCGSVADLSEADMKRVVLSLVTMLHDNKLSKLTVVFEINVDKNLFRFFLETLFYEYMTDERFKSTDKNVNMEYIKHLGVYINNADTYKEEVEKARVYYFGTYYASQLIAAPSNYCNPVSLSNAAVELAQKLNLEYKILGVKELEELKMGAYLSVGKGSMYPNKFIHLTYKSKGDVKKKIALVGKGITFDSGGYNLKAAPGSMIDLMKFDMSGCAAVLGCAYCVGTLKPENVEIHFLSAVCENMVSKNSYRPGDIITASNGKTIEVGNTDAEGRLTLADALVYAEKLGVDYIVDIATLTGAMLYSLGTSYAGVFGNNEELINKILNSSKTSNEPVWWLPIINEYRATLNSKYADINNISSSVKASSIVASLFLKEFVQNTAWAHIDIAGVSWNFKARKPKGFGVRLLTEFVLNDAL

cells [1] = type: functional, cell-based
cells [2] = type: functional, cell-based; remark: listed apart in the source
[3] = molecular target: T2, Calpain-2 catalytic subunit (Sus scrofa, UniProt P43367); assay: pig calpain II inhibitor potency, dose response, biochemical, fluorogenic peptide substrate (AID 1420); type: functional
T2 sequence (P43367 whole entry): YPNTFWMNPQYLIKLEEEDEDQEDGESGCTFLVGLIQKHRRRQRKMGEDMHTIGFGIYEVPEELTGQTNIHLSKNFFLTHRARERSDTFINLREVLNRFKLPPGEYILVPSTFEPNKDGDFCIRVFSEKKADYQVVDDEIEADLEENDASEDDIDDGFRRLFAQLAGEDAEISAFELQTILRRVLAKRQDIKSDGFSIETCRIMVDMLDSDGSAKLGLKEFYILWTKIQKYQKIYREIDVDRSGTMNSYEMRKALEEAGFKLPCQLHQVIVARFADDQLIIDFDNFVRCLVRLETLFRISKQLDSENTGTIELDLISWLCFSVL

[4] = molecular target: T3, Heat shock factor protein 1 (Mus musculus, UniProt P38532); assay: HSF1 potentiators in luciferase reporter cells, confirmation, cell-based, NIH3T3, luminescence, dose retest (AID 435004); type: functional;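 further: stress induced by proteasome inhibitor MG132 added 30 min after compound; luciferase reporter driven by HSF1 response element in NIH3T3 cells; actives raise luminescence as potentiators of the MG132 stress response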
T3 sequence (P38532 whole entry): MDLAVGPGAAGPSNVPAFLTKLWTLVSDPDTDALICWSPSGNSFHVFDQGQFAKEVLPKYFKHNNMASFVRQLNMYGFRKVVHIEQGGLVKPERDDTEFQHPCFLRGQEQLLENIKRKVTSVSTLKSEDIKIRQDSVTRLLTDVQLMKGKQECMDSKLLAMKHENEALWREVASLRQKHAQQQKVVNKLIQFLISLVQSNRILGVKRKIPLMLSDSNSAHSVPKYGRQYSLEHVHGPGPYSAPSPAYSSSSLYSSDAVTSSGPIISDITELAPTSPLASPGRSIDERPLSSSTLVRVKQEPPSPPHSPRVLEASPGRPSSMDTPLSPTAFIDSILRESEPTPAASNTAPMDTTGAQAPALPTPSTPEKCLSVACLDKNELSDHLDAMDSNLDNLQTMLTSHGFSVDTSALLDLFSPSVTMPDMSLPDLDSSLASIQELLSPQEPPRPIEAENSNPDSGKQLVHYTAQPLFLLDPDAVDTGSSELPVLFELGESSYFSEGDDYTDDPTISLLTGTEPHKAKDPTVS

[5] = A cytotoxicity screen of small molecule inhibitors of the PhoP region in Salmonella typhi identified in the primary screen. [Related pubchem assays: 1850, 1864, 1985 ]; type: functional
Fatty acid synthase [6] = molecular target: T4, Fatty acid synthase (Homo sapiens, UniProt P49327); assay: FAS thioesterase domain inhibitors, dose response, biochemical, endpoint fluorescence intensity, uHTS hits (AID 624327); type: functional;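 further: fluorescence from hydrolysis of an O-methyl fluorescein acyl ester substrate by the enzyme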
Fatty acid synthase [7] = molecular target: T4, Fatty acid synthase; assay: FAS thioesterase domain inhibitors, dose response, biochemical, kinetic fluorescence intensity (AID 624326); type: functional;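 further: rate of fluorescence rise from hydrolysis of a fluorogenic O-methyl fluorescein ester substrate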
[8] = molecular target: T5, DNA repair protein RAD52 homolog (Homo sapiens, UniProt P43351); type: functional, biochemical
T5 sequence (P43351 whole entry): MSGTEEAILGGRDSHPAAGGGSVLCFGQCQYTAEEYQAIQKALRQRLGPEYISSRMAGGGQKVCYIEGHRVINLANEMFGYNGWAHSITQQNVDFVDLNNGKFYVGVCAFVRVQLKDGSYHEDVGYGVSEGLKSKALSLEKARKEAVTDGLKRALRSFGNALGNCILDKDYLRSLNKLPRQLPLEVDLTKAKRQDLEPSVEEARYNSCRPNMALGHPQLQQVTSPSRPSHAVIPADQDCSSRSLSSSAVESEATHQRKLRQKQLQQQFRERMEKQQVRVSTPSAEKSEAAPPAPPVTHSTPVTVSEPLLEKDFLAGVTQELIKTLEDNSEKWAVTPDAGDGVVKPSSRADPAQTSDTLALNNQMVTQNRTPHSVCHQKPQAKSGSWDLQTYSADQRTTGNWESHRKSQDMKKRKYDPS

[9] = NIH-3T3 fibroblast cytotoxicity, dose response, cytotoxicity control, cell-based, fluorescence, Alamar Blue, secondary assay (AID 2327); type: functional;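 further: NIH-3T3 mouse fibroblasts cultured with fluconazole at 8 µg/mL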
[10] = C. albicans growth with fluconazole, confirmation, fluorescence, retest (AID 2467); type: functional, cell-based

T4 sequence (P49327 whole entry, the tested form may be a part): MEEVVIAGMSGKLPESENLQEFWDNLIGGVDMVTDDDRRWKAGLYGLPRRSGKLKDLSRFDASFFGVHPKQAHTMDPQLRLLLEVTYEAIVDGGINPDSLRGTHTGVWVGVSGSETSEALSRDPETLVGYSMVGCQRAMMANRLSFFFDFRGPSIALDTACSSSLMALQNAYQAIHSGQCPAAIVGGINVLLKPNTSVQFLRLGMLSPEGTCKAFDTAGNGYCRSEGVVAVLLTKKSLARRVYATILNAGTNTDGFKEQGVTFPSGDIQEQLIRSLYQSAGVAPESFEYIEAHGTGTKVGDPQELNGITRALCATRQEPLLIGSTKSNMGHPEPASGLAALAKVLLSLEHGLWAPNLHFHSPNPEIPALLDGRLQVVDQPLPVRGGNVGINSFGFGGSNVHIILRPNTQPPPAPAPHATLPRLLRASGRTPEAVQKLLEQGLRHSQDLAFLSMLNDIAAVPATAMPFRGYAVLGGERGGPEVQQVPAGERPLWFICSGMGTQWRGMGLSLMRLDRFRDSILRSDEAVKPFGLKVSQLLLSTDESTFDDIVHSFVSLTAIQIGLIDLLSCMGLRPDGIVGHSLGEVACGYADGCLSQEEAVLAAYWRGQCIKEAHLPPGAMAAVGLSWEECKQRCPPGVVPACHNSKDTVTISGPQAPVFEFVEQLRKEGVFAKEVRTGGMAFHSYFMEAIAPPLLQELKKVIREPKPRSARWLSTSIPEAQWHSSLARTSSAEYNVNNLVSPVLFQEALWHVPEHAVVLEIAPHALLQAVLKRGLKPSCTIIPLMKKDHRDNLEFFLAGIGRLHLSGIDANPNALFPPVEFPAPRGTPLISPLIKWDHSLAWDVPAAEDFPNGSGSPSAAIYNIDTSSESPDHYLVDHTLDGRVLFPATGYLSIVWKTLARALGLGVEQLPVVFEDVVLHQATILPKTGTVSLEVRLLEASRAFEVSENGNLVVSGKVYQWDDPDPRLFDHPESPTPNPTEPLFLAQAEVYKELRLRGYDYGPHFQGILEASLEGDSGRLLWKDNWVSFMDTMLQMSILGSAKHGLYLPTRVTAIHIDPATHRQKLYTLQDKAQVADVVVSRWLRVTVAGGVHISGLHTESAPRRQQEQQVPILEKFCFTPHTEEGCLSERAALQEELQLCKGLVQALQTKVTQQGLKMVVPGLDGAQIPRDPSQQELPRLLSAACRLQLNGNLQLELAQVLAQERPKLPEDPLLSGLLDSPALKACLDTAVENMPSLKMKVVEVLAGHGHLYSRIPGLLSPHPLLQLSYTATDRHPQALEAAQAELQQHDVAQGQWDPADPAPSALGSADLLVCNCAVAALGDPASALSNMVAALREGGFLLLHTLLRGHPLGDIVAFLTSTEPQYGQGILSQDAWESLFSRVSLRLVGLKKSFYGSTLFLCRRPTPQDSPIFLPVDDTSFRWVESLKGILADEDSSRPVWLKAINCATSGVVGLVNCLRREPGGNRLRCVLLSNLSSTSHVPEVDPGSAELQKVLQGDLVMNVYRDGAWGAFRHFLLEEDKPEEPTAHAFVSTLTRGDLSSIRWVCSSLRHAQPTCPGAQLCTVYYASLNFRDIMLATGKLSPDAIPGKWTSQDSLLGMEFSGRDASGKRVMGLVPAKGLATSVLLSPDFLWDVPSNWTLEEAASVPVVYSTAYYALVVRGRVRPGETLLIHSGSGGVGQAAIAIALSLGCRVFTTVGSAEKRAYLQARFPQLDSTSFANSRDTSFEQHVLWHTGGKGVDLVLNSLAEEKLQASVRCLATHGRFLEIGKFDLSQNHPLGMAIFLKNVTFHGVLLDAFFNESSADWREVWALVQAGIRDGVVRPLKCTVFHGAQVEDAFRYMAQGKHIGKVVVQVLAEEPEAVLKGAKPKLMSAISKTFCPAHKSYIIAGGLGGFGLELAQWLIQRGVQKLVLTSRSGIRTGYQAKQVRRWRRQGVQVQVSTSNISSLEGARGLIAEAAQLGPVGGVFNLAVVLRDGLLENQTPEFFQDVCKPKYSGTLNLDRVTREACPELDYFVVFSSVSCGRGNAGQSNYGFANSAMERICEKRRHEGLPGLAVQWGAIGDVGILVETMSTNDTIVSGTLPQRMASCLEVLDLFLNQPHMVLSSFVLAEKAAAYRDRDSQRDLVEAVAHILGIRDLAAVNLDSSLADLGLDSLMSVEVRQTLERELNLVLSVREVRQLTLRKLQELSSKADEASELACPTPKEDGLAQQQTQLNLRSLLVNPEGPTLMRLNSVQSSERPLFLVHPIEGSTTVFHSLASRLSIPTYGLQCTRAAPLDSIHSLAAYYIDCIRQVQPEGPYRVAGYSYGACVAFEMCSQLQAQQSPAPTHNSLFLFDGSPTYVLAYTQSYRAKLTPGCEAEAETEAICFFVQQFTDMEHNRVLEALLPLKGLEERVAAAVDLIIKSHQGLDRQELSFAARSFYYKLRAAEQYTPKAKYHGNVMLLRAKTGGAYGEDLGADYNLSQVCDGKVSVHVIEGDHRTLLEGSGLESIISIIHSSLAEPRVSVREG

Compound: O=C(CN1C(=O)S/C(=C/C=C/c2ccccc2)C1=O)Nc1ccc(C(=O)O)cc1
- IC50 (Leucine aminopeptidase): 24.5 µM (active)

Compound: O=C(CN(Cc1ccc(F)cc1)C(=O)CCC(=O)Nc1nccs1)NCC1CCCO1 (configuration not stated)
- EC50 (cells [1]): > 350 µM (not active)
- EC50 (cells [2]): 35.3 µM (active)

Compound: CC1Cc2ccccc2N1C(=O)COC(=O)C1(c2ccccc2F)CCCC1 (configuration not stated)
- IC50 [3]: 7.23 µM (not active)

Compound: O=C(O)CC12C[C@H]3C[C@@H](C1)CC(n1ncc(N4CCN(c5ccccc5)CC4)c(Cl)c1=O)(C3)C2
- IC50 (Leucine aminopeptidase): 152 µM (active)
- EC50 [4]: > 260 µM (inactive)

Compound: Cc1cccc(NS(=O)(=O)c2ccc3c(c2)OCCO3)c1
- EC50 [5]: > 50 µM (active)

Compound: CC(C(=O)NCCC1=CCCCC1)c1ccc([N+](=O)[O-])cc1 (configuration not stated)
- IC50 (Fatty acid synthase [6]): 5.76 µM (active)
- IC50 (Fatty acid synthase [7]): 5.99 µM (active)

Compound: S=C(Nc1ccccc1Cl)N(Cc1ccccc1)Cc1ccccn1
- EC50 [5]: > 50 µM (active)

Compound: Cc1c(OCC(=O)NC(Cc2ccc(Cl)cc2)C(=O)O)ccc2c(-c3ccccc3)cc(=O)oc12 (configuration not stated)
- IC50 (Fatty acid synthase [6]): 6.45 µM (active)
- IC50 (Fatty acid synthase [7]): 13.3 µM (active)

Compound: CCCCNC(=O)CCC(=O)Nc1ccc2nc(N3CCC(C)CC3)cc(C)c2c1
- EC50 [5]: > 50 µM (active)

Compound: NC1(C(=O)O)CCCc2ccc(N(CCCl)CCCl)cc21 (configuration not stated)
- AC50 [8]: 16 µM (active)

Compound: CN(C)c1ccc(CNC(=O)CCS(=O)(=O)c2ccc3c(c2)oc(=O)n3C)cc1
- EC50 (cells [1]): > 350 µM (not active)
- EC50 (cells [2]): > 350 µM (not active)

Compound: CSCCC(NC(=O)c1c(C)oc2c1CCCC2)C(=O)O (configuration not stated)
- IC50 (Leucine aminopeptidase): 35.9 µM (active)

Compound: O=C(CSc1cccc[n+]1[O-])c1cc(Cl)ccc1Cl
- EC50 [9]: 35.8 µM (active)
- EC50 [10]: > 38 µM (not active)
- IC50 [3]: > 50 µM (not active)

Compound: c1ccc(CN2CCC(N3CCN(Cc4ccc5c(c4)OCO5)CC3)CC2)cc1
- EC50 [5]: > 50 µM (active)

Compound: CCN1CCN(CCCNC(=O)C2CCN(c3nnc(-n4c(C)ccc4C)s3)CC2)CC1
- AC50 [8]: 9.22 µM (active)
